From patent US20100080843A1, “Natural and synthetic sulfur and selenium analogs and polymer conjugated forms thereof for the modulation of angiogenesis” (The Research Foundation of the State University Of New York …, priority 2005, published 2010)
Where “and” joins values, the source holds several entries; their conditions need not be identical. Equal values may be shown once.

Tests used:
[1] = system: endothelial cells; test: Inhibition of Endothelial Cell Tube Formation (Matrigel, FGF2-stimulated); format: cell-based, Human; settings: for inhibition at 3 µM: Homo sapiens, Endothelial cell, read-out: Man % Inhibition +/− SD
Description: Differentiation by endothelial cells was examined using a method developed by Grant et al. (Grant et al., In Vitro Cell Dev. Biol., 27A:327-336 (1991), which is hereby incorporated by reference in its entirety). Matrigel® matrix, phenol-red free (commercially available from Becton Dickinson, Bedford, Mass.) was thawed overnight at 4° C. Using cold pipette tips, 3.0 mg/well of Matrigel® matrix was placed M a cold twenty-four-multi-well plate (Falcon). Matrigel® matrix was allowed to polymerize during incubation at 37° C. for 30 minutes.

[2] = system: FGF2-induced angiogenesis in chick chorioalloantoic membranes; test: Neovascularization in the Chick Chorioalloantoic Membrane (CAM), FGF2-stimulated CAM Model; format: in vivo; settings: for Branch Points ± SEM: CAM; for inhibition at 10 µM: Gallus gallus, FGF2 + analog, 10 uM (Table 4), read-out: % inhibition ± SEM Branch point in CAM; for % inhibition ± SEM: CAM branch points (Table 3)
Description: In vivo neovascularization was examined by the method previously described by Auerbach et al. (Auerbach et al., J. Dev. Biol., 41:391-394 (1974), which is hereby incorporated by reference in its entirety). Ten-day old embryos were purchased from Spafas, Inc. (Preston, Conn.) and were incubated at 37° C. with 55% relative humidity. In the dark with the help of a candling lamp, a small hole was punctured in the shell concealing the air sac with a hypodermic needle. A second hole was punctured, in the shell on the broadside of the egg directly over an avascular portion of the embryonic membrane, as observed during candling. A false air sac was created beneath the second hole by the application of negative pressure to the first hole, which caused the chorioallantoic membrane (CAM) to separate from the shell. A window, approximately 1.0 cm^2, was cut in the shell over the dropped CAM with the use of a small crafts grinding wheel (Dremel, Division of Emerson Electric Company Racine, Wis.), which allowed direct, access to the underlying CAM. Filter disks of #1 filter paper (Whatman International, United Kingdom) were soaked in 3 mg/mL cortisone acetate (Sigma, St. Louis, Mo.) in a solution of 95% ethanol and water and subsequently air dried under sterile conditions. FGF2 (Life Technologies, Gaithersburg, Md.) was used to grow vessels on the CAMs of 10 day old chick embryos. Sterile filter disks adsorbed with FGF2 dissolved in PBS at 1 μg/mL were placed on growing CAMs. Sterile filter disks adsorbed with FGF2 or sulfur- or selenium-containing compounds, and polymeric forms were dissolved in PBS at 1 μg/mL were placed on growing CAM. At 24 h, test compounds or control vehicle was added directly to CAM topically.
CAM tissue directly beneath FGF2-saturated filter disk was resected from embryos treated 48 hours prior with test compound or control. Tissues were washed three times with PBS. Sections were placed in a 35-mm petri dish (Nalge Nunc, Rochester, N.Y.) and examined under a SV6 stereomicroscope (Karl Zeiss, Thornwood, N.Y.) at 50× magnification. Digital images of CAM sections adjacent to filters were collected using a 3-CCD color video camera system (Toshiba America, New York, N.Y.) and analyzed using Image-Pro Plus software (Media Cybernetics, Silver Spring, Md.).
Statistical Analysis: Statistical analysis was performed by 1-way ANOVA comparing experimental with control samples.

[3] = FGF2 + analog, all compounds tested at 3 μM, n = 3

Row | Compound | Length(mm) ± SEM [1, 3] [mm] | inhibition at 3 µM [1, 3] [%] | Branch Points ± SEM ([2]; FGF2 (1.0 ug/ml) + analog) | inhibition at 10 µM [2] [%] | Length(mm) ± SEM ([1]; FGF2 alone (stimulated control)) [mm] | Branch Points ± SEM ([2]; FGF2 alone, 1.0 ug/ml) | % inhibition ± SEM ([2]; FGF2 (1.0 ug/ml) + analog) [%]
1 | O=C(O)C[Se](=O)(=O)CC(=O)O [Example 20] | 25.11 ± 3.1 | 62.9 ± 10.5 | 148.67 ± 11.02 | 36.3 ± 12.6 | – | – | –
2 | C[Se](=O)(=O)c1ccccc1 [Example 16] | 28.78 ± 0.88 | 46.5 ± 3.2 | – | 23.8 ± 4.9 | – | – | –
3 | O=S1(=O)CCCC1 [Example 2] | 24.03 ± 0.85 | 66.5 ± 2.87 | 141.0 ± 10.69 | 55 ± 8.53 | – | – | –
4 | FGF2: growth factor used to grow vessels on the CAMs; pro-angiogenic stimulus [reference compound] | – | – | – | – | 43.82 ± 3.2 | 180.33 ± 8.58 and 193 ± 11 and 173 ± 7.5 | –
5 | CCCCS(=O)(=O)CCCC [Example 3] | 25.41 ± 1.1 | 61.9 ± 3.57 | 150.88 ± 14.31 | 47.2 ± 11.4 | – | – | –
6 | CCS(=O)(=O)CC [Example 19] | 28.46 ± 25.7 | 47.6 ± 9.2 | 131 ± 17 | 53 ± 15 | – | – | –
7 | CC[Se](=O)(=O)CC [Example 17] | 30.98 ± 2.43 | 38.6 ± 8.7 | 146 ± 8.5 | 39.9 ± 7.3 | – | – | 40 ± 7
8 | O=S(=O)(c1ccccc1)c1ccccc1 [Example 15] | 23.43 ± 2.5 | 65.6 ± 8.9 | 163 ± 15 | 25 ± 13 | – | – | –
9 | O=S1(=O)CC2(C1)CS(=O)(=O)C2 [Example 13] | 34.61 ± 0.24 | 31 ± 0.8 | 164 ± 5 | 24.7 ± 4.3 | – | – | 24 ± 4.3
10 | CS(=O)(=O)c1ccccc1 [Example 5] | 28.81 ± 1.0 | 50.5 ± 3.48 | 140 ± 5.2 | 37 | – | – | 37 ± 5.9
11 | O=[Se](=O)(c1ccccc1)c1ccccc1 [Example 14] | 31.91 ± 1.8 | 40.1 ± 6.12 | 143.5 ± 4.7 | 41.4 ± 4.5 | – | – | –
12 | O=S1(=O)C=CC1 [Example 1] | 20.64 ± 0.68 | 77.9 ± 2.28 | 149 ± 8.9 | 48.9 ± 7 | – | – | –
13 | CS(=O)(=O)CS(C)(=O)=O [Example 12] | 31.47 ± 1.5 | 41.5 ± 4.93 | 144.83 ± 9.19 | 40.6 ± 10.5 | – | – | –
14 | CS(=O)(=O)C(Cl)(Cl)Cl [Example 9] | 21.95 ± 3.1 | 73.5 ± 10.5 | 135.83 ± 8.17 | 51 ± 9.36 | – | – | –
15 | C[Se](=O)c1ccccc1 (stereo not drawn) [Example 18] | 28.22 ± 0.92 | 48.5 ± 3.3 | 165 ± 5.7 | 39 | – | – | 23.8 ± 4.9
16 | O=S1(=O)CC=CC1 [Example 4] | 25.25 ± 0.66 | 62.5 ± 2.24 | 131.57 ± 11.55 | 62.6 ± 9.21 | – | – | –
17 | CSCS(C)(=O)=O [Example 6] | 22.91 ± 1.70 | 70.3 ± 5.71 | 158.0 ± 7.08 | 25.6 ± 8.1 | – | – | –
